Results: patent publication US6660755B2, “Substituted diaryl or diheteroaryl methans, ethers and amines having retinoid agonist, antagonist or inverse agonist type biological activity” (Allergan, Inc., priority 1997, dated 2003)

Key:
RARα [1] = target: RARα (Homo sapiens, UniProt P10276, E106G/G107S/G110V); experiment: PGR assay (RAR-P-GR holoreceptor transactivation), RARα; assay type: cell-based; conditions: for EC50: PGR assay (transactivation), CV-1 cells, luciferase reporter; for Emax: 18 h
RARα (Homo sapiens, UniProt P10276, E106G/G107S/G110V), sequence (P10276 whole entry E106G/G107S/G110V): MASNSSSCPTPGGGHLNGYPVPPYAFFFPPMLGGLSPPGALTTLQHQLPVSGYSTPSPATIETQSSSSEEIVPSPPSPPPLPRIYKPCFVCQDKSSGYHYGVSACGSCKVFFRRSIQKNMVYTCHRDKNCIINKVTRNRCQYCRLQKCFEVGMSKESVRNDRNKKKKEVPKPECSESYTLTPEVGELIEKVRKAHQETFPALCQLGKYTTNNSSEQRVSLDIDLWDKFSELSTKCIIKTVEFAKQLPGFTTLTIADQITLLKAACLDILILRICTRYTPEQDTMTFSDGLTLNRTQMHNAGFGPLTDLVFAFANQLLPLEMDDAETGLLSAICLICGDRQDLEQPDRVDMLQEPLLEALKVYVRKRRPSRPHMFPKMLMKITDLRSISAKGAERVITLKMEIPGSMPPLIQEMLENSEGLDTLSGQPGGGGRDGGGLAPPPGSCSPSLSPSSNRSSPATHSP
RARα (Homo sapiens, UniProt P10276, E106G/G107S/G110V), sequence (P19793 whole entry, further chain): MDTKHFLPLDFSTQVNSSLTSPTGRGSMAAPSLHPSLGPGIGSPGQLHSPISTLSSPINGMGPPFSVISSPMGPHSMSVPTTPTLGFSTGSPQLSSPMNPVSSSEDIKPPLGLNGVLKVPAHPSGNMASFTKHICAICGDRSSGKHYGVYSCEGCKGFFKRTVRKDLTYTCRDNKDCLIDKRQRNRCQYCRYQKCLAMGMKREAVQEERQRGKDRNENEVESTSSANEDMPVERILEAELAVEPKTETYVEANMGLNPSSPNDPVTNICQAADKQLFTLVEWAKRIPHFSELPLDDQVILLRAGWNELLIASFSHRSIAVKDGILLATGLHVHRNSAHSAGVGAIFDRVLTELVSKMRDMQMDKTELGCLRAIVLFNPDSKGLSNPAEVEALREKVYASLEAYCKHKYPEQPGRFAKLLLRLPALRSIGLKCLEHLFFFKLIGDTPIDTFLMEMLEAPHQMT
Description: (§1) A holoreceptor transactivation assay and a ligand binding assay which measure the antagonist/agonist like activity of the compounds of the invention, or their ability to bind to the several retinoid receptor subtypes, respectively, are described in published PCT Application No. WO WO93/11755 (particularly on pages 30-33 and 37-41) published on Jun. 24, 1993, the specification of which is also incorporated herein by reference. A detailed experimental procedure for holoreceptor transactivations has been described by Heyman et al. Cell 1992, 68, 397-406; Allegretto et al. J. Biol. Chem. 1993 268, 26625-26633, and Mangelsdorf et al. The Retinoids: Biology, Chemistry and Medicine, pp 319-349, Raven Press Ltd., New York, which are expressly incorporated herein by reference. The results obtained in this assay are expressed in EC50 numbers, as they are also in the chimeric receptor transactivation assay. The results of ligand binding assay are expressed in Kd numbers. (See Cheng et al. Biochemical Pharmacology 22, 3099-3108, expressly incorporated herein by reference.) Still another transactivation assay, the “PGR assay” is described in the publication Klein et al. J. Biol. Chem. 1996, 271, 22692-22696, which is expressly incorporated herein by reference, and a detailed description is also provided below. The results of the PGR assay are also expressed in EC50 numbers (nanomolar concentration).
(§2) RAR-P-GR holoreceptor Transactivation Assay
(§3) CV-1 cells (4×10^5 cells/well) were transiently transfected with the luciferase reporter plasmid MTV-4(R5G)-Luc (0.7 μg/well) containing four copies of the R5G retinoid DNA response element along with the RXRα expression plasmid pRS-hRXRa (0.1 μg/well) and one of the RAR-P-GR expression plasmids (0.05 μg/well) in 12 well plates via calcium phosphate precipitation Chen et al. Mol. Cell. Biol. 1987, 7, 2745-2752 as described by Klein et al. J. Biol. Chem. 1996, 271, 22692, referenced above. The three different RAR-P-GR expression plasmids, pRS-RARα-P-GR, pcDNA3-RARβ-P-GR and pcDNA3-RARγ-P-GR, express RARα, RARβ and RARγ receptors, respectively, which contain modified DNA binding domains such that their “P-boxes” have been altered to that of the glucocorticoid receptor. These RAR-P-GR receptors bind to DNA as heterodimeric complexes with RXR. Specifically, the RAR-P-GR receptors bind retinoic acid response elements designated R5G, comprised of two RAR half sites (nucleotide sequence 5′-GGTTCA-3′) separated by 5 base pairs in which the 3′-half site has been modified to that of a glucocorticoid receptor half site, 5′-AGAACA-3′. To allow for various in transfection efficiency a β-galactosidase expression plasmid (0.01 μg/well) was used as an internal control. Alternatively, the assay was performed in a 96-well microtiter plate format (5000 cells/well) in a manner which was identical to that described above except ⅕ of the amount of the DNA-calcium phosphate precipitant (20 μl instead of 100 Al) was applied to each well. Eighteen hours after introduction of the DNA precipitants, cells were rinsed with phosphate buffered saline (PBS) and fed with D-MEM (Gibco-BRL) containing 10% activated charcoal extracted fetal bovine serum (Gemini Bio-Products). After rinsing with PBS cells were lysed with luciferase activity was measured as previously described in de Wet Mol. Cell. Biol. 1987, 7, 725-737. Luciferase values represent the mean±SEM of triplicate determinations normalized to β-galactosidase activity. The results of the PGR assay are also expressed in EC50 numbers (nanomolar concentration).

RARβ [2] = target: T1, RARβ (Homo sapiens, UniProt P10826); experiment: Ligand binding assay, RARβ; conditions: read-out: Kd RABβ
T1 sequence (P10826 1-455): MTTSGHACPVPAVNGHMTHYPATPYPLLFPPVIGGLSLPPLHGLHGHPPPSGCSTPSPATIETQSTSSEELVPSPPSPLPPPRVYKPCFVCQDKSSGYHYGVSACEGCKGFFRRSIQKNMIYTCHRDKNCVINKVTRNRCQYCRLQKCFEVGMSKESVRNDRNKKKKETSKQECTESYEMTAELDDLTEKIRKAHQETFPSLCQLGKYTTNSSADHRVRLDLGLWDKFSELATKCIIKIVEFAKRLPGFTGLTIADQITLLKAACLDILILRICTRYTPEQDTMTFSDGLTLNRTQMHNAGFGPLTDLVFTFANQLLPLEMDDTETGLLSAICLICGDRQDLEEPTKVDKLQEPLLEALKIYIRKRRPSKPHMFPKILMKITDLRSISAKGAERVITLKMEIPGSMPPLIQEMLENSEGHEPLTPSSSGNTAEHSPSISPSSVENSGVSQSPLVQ
Description: as §1

RARα [3] = target: T2, RARα (Homo sapiens, UniProt P10276); experiment: Ligand binding assay, RARα
T2 sequence (P10276 1-462): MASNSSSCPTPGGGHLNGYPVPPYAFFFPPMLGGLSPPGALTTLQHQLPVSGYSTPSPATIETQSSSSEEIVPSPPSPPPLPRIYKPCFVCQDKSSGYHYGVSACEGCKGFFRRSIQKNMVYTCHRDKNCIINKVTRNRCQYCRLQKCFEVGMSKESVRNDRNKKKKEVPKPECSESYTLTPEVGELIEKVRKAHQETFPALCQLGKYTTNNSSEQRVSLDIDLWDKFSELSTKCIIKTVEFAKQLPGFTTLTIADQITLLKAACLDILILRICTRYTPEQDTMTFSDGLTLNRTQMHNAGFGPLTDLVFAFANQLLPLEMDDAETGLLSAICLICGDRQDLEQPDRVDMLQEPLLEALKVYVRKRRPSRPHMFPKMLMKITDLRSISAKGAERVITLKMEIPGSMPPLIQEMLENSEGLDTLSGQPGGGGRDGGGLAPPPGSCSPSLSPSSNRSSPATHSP
Description: as §1

RARβ [4] = target: RARβ (Homo sapiens, UniProt P10826, E106G/G107S/G110V); experiment: PGR assay (RAR-P-GR holoreceptor transactivation), RARβ; assay type: cell-based; conditions: for EC50: PGR assay (transactivation), CV-1 cells, luciferase reporter; for Emax: 18 h
RARβ (Homo sapiens, UniProt P10826, E106G/G107S/G110V), sequence (P19793 whole entry): as the sequence (P19793 whole entry, further chain) above
RARβ (Homo sapiens, UniProt P10826, E106G/G107S/G110V), sequence (P10826 whole entry E106G/G107S/G110V): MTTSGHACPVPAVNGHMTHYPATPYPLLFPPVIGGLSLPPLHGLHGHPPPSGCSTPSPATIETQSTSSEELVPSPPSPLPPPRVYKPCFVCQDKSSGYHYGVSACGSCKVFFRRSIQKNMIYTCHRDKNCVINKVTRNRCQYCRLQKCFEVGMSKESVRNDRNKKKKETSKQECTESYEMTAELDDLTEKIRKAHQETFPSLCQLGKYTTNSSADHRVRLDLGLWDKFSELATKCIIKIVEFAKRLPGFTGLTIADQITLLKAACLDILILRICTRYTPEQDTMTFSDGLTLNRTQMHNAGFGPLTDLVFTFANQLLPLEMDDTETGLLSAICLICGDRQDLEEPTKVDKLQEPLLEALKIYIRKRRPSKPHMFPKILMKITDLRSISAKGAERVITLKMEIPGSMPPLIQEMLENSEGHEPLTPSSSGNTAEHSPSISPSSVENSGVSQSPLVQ
Description: as §1, §2, §3

[5] = efficiency relative to all-trans-retinoic acid, PGR assay

EC50 (RARα [1]) | % Efficiency RARα (RARα [1]; [5]) | Kd (RARβ [2]) | Kd (RARα [3]) | EC50 (RARβ [4]) | % Efficiency RARβ (RARβ [4]; [5]) | Emax (RARα [1]; [5]) | Emax (RARβ [4]; [5]) | Compound
> 10000 nM | 0% | 113 nM | 1050 nM | > 10000 nM | 0% |  |  | CC(C)(C)c1ccc(C#Cc2ccc(C(=O)O)cn2)cc1Oc1ccc(C(F)(F)F)cc1 [Compound 6, 6-[[4′-tert-Butyl-3′-(4″-trifluomethyl)phenoxy]phenylethynyl]-3-nicotinic Acid]
> 10000 nM |  | 14 nM | 15 nM | > 10000 nM |  | 0% | 0% | COC(=O)c1ccc(Oc2cc(C#Cc3ccc(C(=O)O)c(F)c3)ccc2C(C)(C)C)cc1 [Compound 10, 4-[[4′-tert-Butyl-3′-(4″-carbomethoxy)phenoxy]phenylethynyl]-2-fluorobenzoic Acid]
> 10000 nM |  | 34 nM | 24 nM | > 10000 nM |  | 0% | 3% | CC(C)(C)c1ccc(C#Cc2ccc(C(=O)O)c(F)c2)cc1Oc1ccc([N+](=O)[O-])cc1 [Compound 11, 4-[[4′-tert-Butyl-3′-(4″-nitro)phenoxy]phenylethynyl]-2-fluoro-benzoic Acid]
> 10000 nM |  | 4570 nM | 11 nM | > 10000 nM |  | 0% | 5% | CC(C)(C)c1ccc(C(=O)Nc2ccc(C(=O)O)c(F)c2)cc1Oc1ccc(C(F)(F)F)cc1 [Compound 13, 4-[[4′-tert-Butyl-3′-(4″-trifluoromethyl)phenoxy]benzoylamino]-2-fluorobenzoic Acid]
